Experimental data taken from patent US11439611B2, “Administration of serine protease inhibitors to the stomach” (LEADING BIOSCIENCES, INC., priority 2010, dated 2022).

Tests used:
Type in all cases: in vivo
[1] = Rat model of severe ischemic intestine with enteral oxygen carrier; conditions: 30 min ischemia, 17 ml solution for a 230 g rat, saturated for 10 min in oxygen
Experimental: More specifically, the feasibility was illustrated in a model with 30 min ischemia with perfluorodecalin solution 17 ml for 230 g rat) previously saturated for 10 min in oxygen. Thus, it should be noted that gastric, duodenal, jejunal, and ileal irrigation (or otherwise exposure) may be used as a stand-alone or supplemental treatment in human and other mammals. Most typically, the volume of the oxygen carrier will be adjusted such as to allow intimate contact with the oxygen carrier throughout the stomach, duodenum, jejunum, and/or ileum.

digestive enzymes = assay: Shock treatment in rats with an enteral protease inhibitor to block digestive enzymes
Experimental: With respect to suitable quantities of one or more protease inhibitors, the inventors observed in various animal models that shock treatment using protease inhibitors to block digestive enzymes requires for at least some protease inhibitors a minimum effective dosage that is substantially above the dosage contemplated in the '283 patent. For example, using tranexamic acid in rats, the minimum effective dose was 100 mg/kg (127 mM in the enteral solution with 17 ml to a 350 gm rat). Here, tranexamic acid was given to rats in 18 cc of fluid. The equivalent concentration in 2 liters (deemed suitable as human dose) is 3.2 grams. The maximum dose tested in rats was 1125 mg/kg, which is equivalent to 36 grams for a human dose in 2 liters of fluid to be administered into the lumen of the stomach or intestine.

[2] = Case study: human patient with Fournier's gangrene, septic shock and multiple organ failure, treated with gabexate mesilate
Experimental: For example, as reported in a case study from the Cheng-Hsin General Hospital (that was approved by Human Ethics Committee and written consent by the patient), a heart transplant patient was regularly followed-up in the clinic with cyclosporine, mycophenolate, and prednisolone therapy for four years. The cyclosporine level was kept around 150, […] without evidence of rejection or infection during this period of follow-up. […] The wound was self-managed by the patient and deteriorated after one week. They were hospitalized and immediately admitted to the intensive care unit. At presentation, blood pressure was 80/40 mmHg in spite of aggressive fluid management with 2 liters of crystalloid and colloid fluid over 5 hours and vasopressor therapy with dopamine […]. […] They were intubated and received broad-spectrum antibiotics, including teichomycin, meropenem, and caspofungin. […] The diagnosis was Fournier's gangrene complicated with septic shock and multiple organ failure. Due to persistent septic shock and worsening septic markers, the patient received in addition a diverting colectomy and intravenous total parental nutrition. Furthermore, the patient also received a second wide debridement. The wound culture was positive with multiple drug resistance Pseudomonas aeruginosa and Bacteroides thetaiotaomicron.
Intravenous gabexate mesilate was given for severe septic shock and elevated amylase and lipase values (as markers for presence of pancreatic enzymes) at a dose of 3000 mg/day. At the same time, the patient stopped all enteral feeding and total parental nutrition was given with positive fluid balance of more than 1 liter per day.
Treatment was then switched to enteral gabexate mesilate infusion by continuous feeding into the stomach via nasogastric tube at a dose of 3000 mg/day in 2000 ml of normal saline. […] On the third day, the dose of gabexate mesilate was reduced to 300 mg/day in a fluid volume of 2000 ml and kept at this level for 10 days before discharge of the patient from the intensive care unit. […] Three days after enteral gabexate mesilate treatment they were extubated. On day 13, the immunosuppressant medication was restored with reduced dosage compared to the time before hospitalization and they were discharged from the ward after one month of admission. Five months after discharge at the time of this report writing the patient was alive.

[3] = enteral via nasogastric tube, 3000 mg/day, within two days

FC1(F)C(F)(F)C(F)(F)C2(F)C(F)(F)C(F)(F)C(F)(F)C(F)(F)C2(F)C1(F)F (stereo not shown) [perfluorodecalin, Perfluorodecalin]
intestinal damage / entry of digestive enzymes into the wall of the intestine [1]: minimize intestinal damage

NC[C@H]1CC[C@H](C(=O)O)CC1 [tranexamic acid]
minimum effective dose, as concentration in the enteral solution (digestive enzymes; 17 ml to a 350 gm rat): 127 mM | equivalent of the minimum effective rat dose in 2 liters (human dose) (digestive enzymes; extrapolated from rat to a human dose in 2 liters): 3.2 grams | minimum effective dose (digestive enzymes; rats, enteral, given in 17-18 ml of fluid to a 350 gm rat): 100 mg/kg

[Ethyl p-(6-guanidinohexanoyloxy) benzoate] methanesulfonate [gabexate mesilate]
effectiveness of a single dose/day given via NG tube in human ([2]; 2 to 4 grams in 1 to 2 liter solution with GOLYTELY (PEG) or saline, over multiple days (up to 14)): very effective | blood pressure ([2]; continuous feeding into the stomach via nasogastric tube, 3000 mg/day in 2000 ml normal saline, within two days, minimal dose of dopamine): stabilized | amylase, lipase and white blood cell (WBC) count ([2]; enteral via nasogastric tube, 3000 mg/day, then 300 mg/day from the third day for 10 days, FIG. 1A): reduced to control values | glucose level [2, 3]: could be controlled by reduced dose of subcutaneous insulin | patient's level of conscience [2, 3]: increased | x-ray of the abdomen (ileus) ([2]; enteral via nasogastric tube, day 16 vs day 1, FIG. 1C): improved ileus | survival ([2]; five months after discharge): alive | plasma amylase and lipase values ([2]; intravenous, 3000 mg/day, over the next 12 hours, enteral feeding stopped, total parenteral nutrition): did not reduce | extubation ([2]; three days after enteral treatment): extubated
